Test: in vivo
Details: SD, rat, po, 50 mg/kg
Procedure: (§1) Healthy adult SD rats (n=3 per group) were fasted overnight (free access to water), and then were administrated the drugs by intragastric administration (i.g.) (50 mg/kg). 0.1 mL of blood was collected from the jugular venous plexus of the rats at 15 minutes, 30 minutes, 1 hour, 2 hours, 4 hours, 6 hours, 8 hours, 24 hours after administration. All blood samples were anticoagulated with K2EDTA, then centrifuged at 3500 rpm at 5° C. for 10 minutes to separate plasma, and stored at −20° C. for test. Parent drug concentration in plasma was determined by LC/MS/MS method.

Compound `[2H]C([2H])([2H])C1=C[C@H](c2c(O)cc(CCC)cc2O)C(C(=C)C)CC1` (stereo in doubt) [Example 3, 5′-(methyl-d3)-2′-(prop-1-en-2-yl)-4-propyl-1′,2′,3′,4′-tetrahydro-[1,1′-biphenyl]-2,6-diol] has an AUC(0-inf) of 4480 ng·h/mL.

With `[2H]C([2H])([2H])C1=C[C@H](c2c(O)cc(CCC)cc2O)C(C(=C)C)CC1` (stereo in doubt) [Example 3, 5′-(methyl-d3)-2′-(prop-1-en-2-yl)-4-propyl-1′,2′,3′,4′-tetrahydro-[1,1′-biphenyl]-2,6-diol] the AUC(0-t) was 4230 ng·h/mL.

Compound `[2H]C([2H])([2H])C1=C[C@H](c2c(O)cc(CCC)cc2O)C(C(=C)C)CC1` (stereo in doubt) [Example 3, 5′-(methyl-d3)-2′-(prop-1-en-2-yl)-4-propyl-1′,2′,3′,4′-tetrahydro-[1,1′-biphenyl]-2,6-diol] has a Cmax of 795 ng/mL.

In the case of `[2H]C([2H])([2H])C1=C[C@H](c2c(O)cc(CCC)cc2O)C(C(=C)C)CC1` (stereo in doubt) [Example 3, 5′-(methyl-d3)-2′-(prop-1-en-2-yl)-4-propyl-1′,2′,3′,4′-tetrahydro-[1,1′-biphenyl]-2,6-diol], the Tmax is reported as 2.1 h.

`[2H]C([2H])([2H])C1=C[C@H](c2c(O)cc(CCC)cc2O)C(C(=C)C)CC1` (stereo in doubt) [Example 3, 5′-(methyl-d3)-2′-(prop-1-en-2-yl)-4-propyl-1′,2′,3′,4′-tetrahydro-[1,1′-biphenyl]-2,6-diol] showed a half-life of 4.9 h.

Test: Pharmacokinetics in rats after intragastric administration
Details: SD, rat, plasma, po, 50 mg/kg
Procedure: as §1

Point of comparison: `[2H]C([2H])([2H])C1=C[C@H](c2c(O)cc(CCCCC)c(C(=O)O)c2O)[C@@H](C(=C)C)CC1` [Example 23], AUC(0-inf) 8230 ng·h/mL. Against it:
- [2H]C([2H])([2H])C1=C[C@@H](c2c(O)cc(CCCCC)cc2O)[C@H](C(=C)C)CC1([2H])[2H] [Example 13, (1′R,2′R)-5′-(methyl-d3)-4-pentyl-2′-(prop-1-en-2-yl)-1′,2′,3′,4′-tetrahydro-[1,1′-biphenyl]-4′,4′-d2-2,6-diol] — within 1.5-fold, 6180 ng·h/mL
- [2H]C([2H])=C([C@@H]1CCC(C([2H])([2H])[2H])=C[C@H]1c1c(O)cc(CCCCC)cc1O)C([2H])([2H])[2H] [Example 7, (1′R,2′R)-5′-(methyl-d3)-4-pentyl-2′-(prop-1-en-2-yl-d5)-1′,2′,3′,4′-tetrahydro-[1,1′-biphenyl]-2,6-diol] — within 1.5-fold, 6290 ng·h/mL
- [2H]C([2H])([2H])C1=C[C@@H](c2c(O)cc(CCCCCCC)cc2O)[C@H](C(=C)C)CC1 [Example 9, (1′R,2′R)-4-heptyl-5′-(methyl-d3)-2′-(prop-1-en-2-yl)-1′,2′,3′,4′-tetrahydro-[1,1′-biphenyl]-2,6-diol] — within 1.5-fold, 6480 ng·h/mL
- [2H]C([2H])(O)C1=C[C@@H](c2c(O)cc(CCCCC)cc2O)[C@H](C(=C)C)CC1([2H])[2H] [Example 16] — within 1.5-fold, 5630 ng·h/mL
- C=C(C)[C@@H]1CCC(C)=C[C@H]1c1c(O)cc(CCCCC)cc1O [CBD, cannabidiol] — 1.8-fold lower, 4500 ng·h/mL

Point of comparison: `[2H]C([2H])([2H])C1=C[C@@H](c2c(O)cc(CCCCC)cc2O)[C@H](C(=C)C)CC1([2H])[2H]` [Example 13, (1′R,2′R)-5′-(methyl-d3)-4-pentyl-2′-(prop-1-en-2-yl)-1′,2′,3′,4′-tetrahydro-[1,1′-biphenyl]-4′,4′-d2-2,6-diol], AUC(0-t) 5980 ng·h/mL. Against it:
- [2H]C([2H])([2H])C1=C[C@H](c2c(O)cc(CCCCC)c(C(=O)O)c2O)[C@@H](C(=C)C)CC1 [Example 23] — within 1.5-fold, 6980 ng·h/mL
- [2H]C([2H])=C([C@@H]1CCC(C([2H])([2H])[2H])=C[C@H]1c1c(O)cc(CCCCC)cc1O)C([2H])([2H])[2H] [Example 7, (1′R,2′R)-5′-(methyl-d3)-4-pentyl-2′-(prop-1-en-2-yl-d5)-1′,2′,3′,4′-tetrahydro-[1,1′-biphenyl]-2,6-diol] — within 1.5-fold, 5830 ng·h/mL
- [2H]C([2H])([2H])C1=C[C@@H](c2c(O)cc(CCCCCCC)cc2O)[C@H](C(=C)C)CC1 [Example 9, (1′R,2′R)-4-heptyl-5′-(methyl-d3)-2′-(prop-1-en-2-yl)-1′,2′,3′,4′-tetrahydro-[1,1′-biphenyl]-2,6-diol] — within 1.5-fold, 6220 ng·h/mL
- [2H]C([2H])(O)C1=C[C@@H](c2c(O)cc(CCCCC)cc2O)[C@H](C(=C)C)CC1([2H])[2H] [Example 16] — within 1.5-fold, 5490 ng·h/mL
- C=C(C)[C@@H]1CCC(C)=C[C@H]1c1c(O)cc(CCCCC)cc1O [CBD, cannabidiol] — within 1.5-fold, 4460 ng·h/mL

Point of comparison: `[2H]C([2H])([2H])C1=C[C@H](c2c(O)cc(CCCCC)c(C(=O)O)c2O)[C@@H](C(=C)C)CC1` [Example 23], Cmax 977 ng/mL. Against it:
- [2H]C([2H])([2H])C1=C[C@@H](c2c(O)cc(CCCCC)cc2O)[C@H](C(=C)C)CC1([2H])[2H] [Example 13, (1′R,2′R)-5′-(methyl-d3)-4-pentyl-2′-(prop-1-en-2-yl)-1′,2′,3′,4′-tetrahydro-[1,1′-biphenyl]-4′,4′-d2-2,6-diol] — within 1.5-fold, 871 ng/mL
- [2H]C([2H])=C([C@@H]1CCC(C([2H])([2H])[2H])=C[C@H]1c1c(O)cc(CCCCC)cc1O)C([2H])([2H])[2H] [Example 7, (1′R,2′R)-5′-(methyl-d3)-4-pentyl-2′-(prop-1-en-2-yl-d5)-1′,2′,3′,4′-tetrahydro-[1,1′-biphenyl]-2,6-diol] — within 1.5-fold, 901 ng/mL
- [2H]C([2H])([2H])C1=C[C@@H](c2c(O)cc(CCCCCCC)cc2O)[C@H](C(=C)C)CC1 [Example 9, (1′R,2′R)-4-heptyl-5′-(methyl-d3)-2′-(prop-1-en-2-yl)-1′,2′,3′,4′-tetrahydro-[1,1′-biphenyl]-2,6-diol] — within 1.5-fold, 823 ng/mL
- [2H]C([2H])(O)C1=C[C@@H](c2c(O)cc(CCCCC)cc2O)[C@H](C(=C)C)CC1([2H])[2H] [Example 16] — within 1.5-fold, 860 ng/mL
- C=C(C)[C@@H]1CCC(C)=C[C@H]1c1c(O)cc(CCCCC)cc1O [CBD, cannabidiol] — within 1.5-fold, 784 ng/mL

Point of comparison: `[2H]C([2H])([2H])C1=C[C@H](c2c(O)cc(CCCCC)c(C(=O)O)c2O)[C@@H](C(=C)C)CC1` [Example 23], Tmax 1.75 h. Against it:
- [2H]C([2H])([2H])C1=C[C@@H](c2c(O)cc(CCCCC)cc2O)[C@H](C(=C)C)CC1([2H])[2H] [Example 13, (1′R,2′R)-5′-(methyl-d3)-4-pentyl-2′-(prop-1-en-2-yl)-1′,2′,3′,4′-tetrahydro-[1,1′-biphenyl]-4′,4′-d2-2,6-diol] — within 1.5-fold, 2 h
- [2H]C([2H])=C([C@@H]1CCC(C([2H])([2H])[2H])=C[C@H]1c1c(O)cc(CCCCC)cc1O)C([2H])([2H])[2H] [Example 7, (1′R,2′R)-5′-(methyl-d3)-4-pentyl-2′-(prop-1-en-2-yl-d5)-1′,2′,3′,4′-tetrahydro-[1,1′-biphenyl]-2,6-diol] — within 1.5-fold, 2.2 h
- [2H]C([2H])([2H])C1=C[C@@H](c2c(O)cc(CCCCCCC)cc2O)[C@H](C(=C)C)CC1 [Example 9, (1′R,2′R)-4-heptyl-5′-(methyl-d3)-2′-(prop-1-en-2-yl)-1′,2′,3′,4′-tetrahydro-[1,1′-biphenyl]-2,6-diol] — within 1.5-fold, 2 h
- [2H]C([2H])(O)C1=C[C@@H](c2c(O)cc(CCCCC)cc2O)[C@H](C(=C)C)CC1([2H])[2H] [Example 16] — within 1.5-fold, 1.5 h
- C=C(C)[C@@H]1CCC(C)=C[C@H]1c1c(O)cc(CCCCC)cc1O [CBD, cannabidiol] — within 1.5-fold, 2 h

Point of comparison: `[2H]C([2H])(O)C1=C[C@@H](c2c(O)cc(CCCCC)cc2O)[C@H](C(=C)C)CC1([2H])[2H]` [Example 16], half-life 5.8 h. Against it:
- [2H]C([2H])([2H])C1=C[C@@H](c2c(O)cc(CCCCC)cc2O)[C@H](C(=C)C)CC1([2H])[2H] [Example 13, (1′R,2′R)-5′-(methyl-d3)-4-pentyl-2′-(prop-1-en-2-yl)-1′,2′,3′,4′-tetrahydro-[1,1′-biphenyl]-4′,4′-d2-2,6-diol] — within 1.5-fold, 6 h
- [2H]C([2H])([2H])C1=C[C@H](c2c(O)cc(CCCCC)c(C(=O)O)c2O)[C@@H](C(=C)C)CC1 [Example 23] — within 1.5-fold, 6.5 h
- [2H]C([2H])=C([C@@H]1CCC(C([2H])([2H])[2H])=C[C@H]1c1c(O)cc(CCCCC)cc1O)C([2H])([2H])[2H] [Example 7, (1′R,2′R)-5′-(methyl-d3)-4-pentyl-2′-(prop-1-en-2-yl-d5)-1′,2′,3′,4′-tetrahydro-[1,1′-biphenyl]-2,6-diol] — within 1.5-fold, 6.5 h
- [2H]C([2H])([2H])C1=C[C@@H](c2c(O)cc(CCCCCCC)cc2O)[C@H](C(=C)C)CC1 [Example 9, (1′R,2′R)-4-heptyl-5′-(methyl-d3)-2′-(prop-1-en-2-yl)-1′,2′,3′,4′-tetrahydro-[1,1′-biphenyl]-2,6-diol] — within 1.5-fold, 7.9 h
- C=C(C)[C@@H]1CCC(C)=C[C@H]1c1c(O)cc(CCCCC)cc1O [CBD, cannabidiol] — within 1.5-fold, 4.8 h

Reference: patent US20230059087A1, “CANNABIDIOL DERIVATIVES, PREPARATION METHOD THEREOF AND USE THEREOF” (CHENGDU BAIYU PHARMACEUTICAL CO., LTD., priority 2020, published 2023)
